Several values for one entry are separate records, joined by “and”; a condition that tells them apart may be missing. Equal entries are not always repeated.
Assays:
[1] = test system: HT1080-non transcribing (CAG)850 cells; experiment: small-pool PCR repeat instability, HT1080-non transcribing (CAG)850 cells; assay type: cell-based, human; settings: 50 uM NA, 30 days, repeat not transcribed
Procedure: The construction of the HT1080-(CAG)850 cell model was described previously (Sathasivam et al., 1997, Hum. Genet., 99:692-5). Briefly, HT1080 (ATCC) human fibrosarcoma cells were co-transfected with a plasmid (LC15-R) containing 800-850 (CTG)●(CAG) repeats (Nakatani et al., 2005, Nat. Chem. Biol., 1:39-43) and a plasmid encoding PhiC31 integrase. Transfection was performed with a Nucleofector (Lonza, Basel, Switzerland), and stably transfected clones were selected with puromycin. […] The HT1080-non-transcribing (CAG)850 cell model was established by transfecting a plasmid modified from pLC16 by inserting an additional SV40 polyadenylation signal downstream of the repeats (in addition to the original polyadenylation signals located upstream of the repeats), so that CAG/CTG repeats are floxed by transcription-terminator elements. The AttB-PhiC31 system has been widely used for single copy integration. […] The HT1080 model cells and an HD primary fibroblast cell line, GM09197 (Coriell Biorepository) with a large expanded allele of 180 CAG repeats and a non-expanded allele of 23 repeats (Sathasivam et al., 1997, Hum. Genet., 99:[…]), the HD primary fibroblast cell line, GM02191 (Coreill Biorepository) with an expanded allele of 43 CAG repeats and a non-expanded allele of 19 repeats, were cultured at 37° C. with 5% CO2 in Dulbecco's modified Eagle's medium supplemented with 10% fetal bovine serum and 1% penicillin/streptomycin. Cells were treated with or without continuous exposure to 50-μM NA for 30 days (HT1080 cells) or for 40 days (fibroblast cells). For experiments on non-proliferating cells, HT1080 cells were grown to confluence and then treated for the same period. WST-1 assay was performed according to the manufacturer's instructions (Roche, Basel, Switzerland). All cell lines were tested to be free of Mycoplasma. Three biological replicates were performed for each experiment.
Genomic DNA was extracted from HT1080-(CAG)850 clones and HD primary fibroblasts using the Gentra Puregene Cell Kit (Qiagen, Valencia, Calif.). The expanded (CTG)●(CAG) repeats were sized by small-pool PCR (sp-PCR) followed by Southern blot as described previously (Sathasivam et al., 1997, Hum. Genet., 99:692-5). For HT1080 models, small-pool PCR (spPCR) was performed with the input of 1.4-1.7 genome equivalents. The repeat size difference in the models is, at most, 3000 base-pairs, therefore, being strictly conservative, a bias toward amplifying the shorter allele can be possible, even under optimized PCR conditions described herein. For HD primary fibroblasts, sp-PCR & Southern blots were performed as described previously with slight modifications (Tome et al., 2013, PLoS Genet., 9:e1003280). Briefly, the PCR primers listed in Table 1 were used, and blots were hybridized with a DIG-labeled (CAG)7 locked nucleic acid probe (Nakamori et al. 2009, Neuromuscul. Disord., 19:759-62). At least 50 alleles were analyzed for each of the three experiments (more than 150 alleles for a total study). Repeat analyses are summarized in Table 2, compiled from complete small-pool-PCR datasets for each repetition of each experiment. For the histograms in FIGS. 4D, 4E, 10, 11, 5B, 5D, 5E, 14 and 15B, the Y-axis, “% of repeat population” was calculated by determining the proportion of >50 individual small-pool PCR reactions across the CAG repeat tract, that harbored a certain size of repeat product with a certain length. Cell clones were grown 30 or 40 days with or without NA (see, for example, Sathasivam et al., 1997, Hum. Genet., 99:692-5). Specifically, the histograms of repeat length distributions were from at least two different cell clones. Length distributions were determined as follows: Small-pool PCR followed by Southern blot for analysis of CAG/CTG repeat length.

[2] = test system: Huntington's disease R6/2 transgenic mice, striatum; experiment: stereotaxic intra-striatal injections into R6/2 mice, CAG length Genescan analysis and instability index; assay type: in vivo, mouse
Procedure: This calculation corrects background using a relative height threshold and normalizes data efficiently, generating an “instability index” that represents the mean CAG length change from the main allele per cell in a population of cells: greater indices reflect greater expansions, lower indices-lower expansions.
Mouse handling and experimental procedures were conducted in accordance with the Osaka University guidelines for the welfare of animals. A single drug application involved six separate stereotactic injections, three injections of drug or saline into three different striatal regions of either the left or right striatum, respectively (outlined in FIG. 24). Under sterile conditions, 6-week-old R6/2 mice were anesthetized with 50 mg/kg pentobarbital sodium, and stereotaxically injected with 5 μl of saline (right side) or 500 μM NA dissolved in saline (left side) into three different sites of the striatum. The mice received injections once or twice bi-weekly, or weekly for 4 consecutive weeks. Stereotaxic injections were delivered to three sites within the striatum with the following coordinates: (anterior-posterior (AP)=0.0 mm, medial-lateral (ML)=1.5 mm from bregma, dorsal-ventral (DV)=2.5 mm below the dural surface; AP=1.0 mm, ML=1.5 mm, DV=2.5 mm; and AP=0.5 mm, ML=1.5 mm, DV=2.5 mm), using a 10-μl Hamilton microsyringe at a rate of 0.5 μL/min. Refer to FIG. 24 outlining dosing regimen. […] The control of our NA treatment is therefore the contralateral side of the striatum of each mouse. Both right and left striatum were assessed for repeat length at the HD CAG transgene and at endogenous, long CAG tracts. For the mice treated four times, DNAs from the tail prior to and following NA administration, as well as left and right frontal cortex and left and right cerebellum were harvested.
At 4 weeks after the first injection, DNA was isolated from mouse brain tissue as previously described (Nakamori et al. 2009, Neuromuscul. Disord., 19:759-62). PCR was performed as described previously (Tome et al., 2013, PLoS Genet., 9:e1003280), and PCR products were sized on an ABI310 Gene Analyser using […] 3.1 software (Life Technologies).
The procedure for instability index calculation was done as previously described (Lee et al., 2010, BMC Syst. Biol., 4:29) and is illustrated and outlined in FIG. 27A.

[3] = test system: d(CAG)9; settings: d(CAG)9 immobilization 497 RU; cited from earlier work
[4] = test system: d(CAG)10; settings: ESI-TOF MS; cited from earlier work
[5] = single experiments Ex 1-3, cut-off ±25 repeats

## naphthyridine-azaquinolone
[1]; Total
  % Contraction: 21.8%
  % Expansion: 12.1%
  % Unchanged: 66.1%
  Average Change of Repeat Size: −55.9 number of repeats
[1]; single experiments Ex 1-3
  % Unchanged: 66.7% and 62.5% and 69.1%
[1]; [5]
  % Contraction: 22.2% and 21.4% and 21.8%
  % Expansion: 11.1% and 16.1% and 9.1%
[2]; 1, 2 and 4 administrations
  instability index of striatum: progressively reduced
[2]; 6-week-old R6/2 mice, repeated intra-striatal injections over four weeks
  effect on expanded repeat relative to saline-injected contralateral striatum: led to seeming contractions of the expanded repeat
[2]; extrapolation from mice, treatments spanning one year
  extrapolated repeat contraction in an HD-affected human: 5-25 repeats
[2]; four injections, 500 μM NA intra-striatal
  difference of main peak CAG lengths saline- versus NA-treated versus tail: 4-7 CAG units
[2]; intra-striatal injections, left versus right side
  CAG length heterogeneity in cerebral cortex and cerebellum (non-injected tissues): identical patterns of CAG length heterogeneity in the right and left sides
[2]; mice with about 150 CAG repeats, four-week period of NA treatment, 500 μM intra-striatal
  rate of contractions in striatal neurons: ~0.5 repeats lost/week
[3]
  changes in the SPR intensity on NA binding: 140 RU
[4]
  number of NA molecules bound to the repeat: at least 6 NA molecules

Source: patent publication US11672786B2, “Methods of treating diseases associated with repeat instability” (The Hospital for Sick Children, priority 2016, dated 2023)
